The text below walks through data of patent US8765726B2, “Use of pyridone derivatives in the prevention or treatment of tissue or organ toxicity induced by cytotoxic agents and radiation” (Shanghai Genomics, Inc., priority 2006, dated 2014).

Series [1] relates to radiation-induced lung injuries. Kind of series: Example 1 repeated with F351 on radiation-induced lung injuries. Format: in vivo. The settings on record: Prophylactic and therapeutic administration, irradiated mice, twenty per group; 'should show'. The source says:
The experiments in Example 1 are repeated, except that 5-methylpyridin-1(4-hydroxyphenyl)-2-(1H)-one (F351) rather than Pirfenidone is used, with twenty mice in each group.

Series [2] relates to Adriamycin-induced renal toxicity. Kind of series: Adriamycin-induced renal toxicity in rats (urine proteins, renal pathology). Format: in vivo, Wistar rats. The settings on record: Adriamycin 7.5 mg/kg tail vein day 1, F351 250 mg/kg per day gavage for 12 weeks. As to the method: 20 male Wistar rats (with body weight 180-220 g) were randomly divided into three groups with 4 rats in control group, 8 rats in Adriamycin-treated group, and 8 rats in Adriamycin+F351-treated group. All the animals (except for those in control group) were injected with 7.5 mg/kg adriamycin by tail vein injection on day 1 of the study. Animals in Adriamycin+F351-treated group were administrated by gauvage with 250 mg/kg F351 per day for 12 weeks starting on day 1 of the study. Animals in the control group were injected with PBS, instead. The study lasted for 12 weeks.
Rat urine was collected 24 hours before the end of the study and amount of urine proteins was determined. Renal tissues were also collected for pathology examination.
20 male Wistar rats (with body weight 180-220 g) were randomly divided into three groups with 4 rats in control group, 8 rats in Adriamycin-treated group, and 8 rats in Adriamycin+F351-treated group. All the animals (except for those in control group) were injected with 7.5 mg/kg adriamycin by tail vein injection at day 1 of the study. Animals in control group were injected with PBS instead. Animals in Adriamycin+F351-treated group were administrated by gauvage with 250 mg/kg F351 per day for 12 weeks starting on day 1.

The subject of series [3] is Bleomycin-induced lung fibrosis. Kind of series: Bleomycin-induced lung fibrosis in mice (pathology, lung index). Format: in vivo, C57B6 mice. The settings on record: Bleomycin 5 mg/kg intratracheal day 1, F351 100 mg/kg/day or dexamethasone 3 mg/kg per day gavage for 28 days.
Procedure: Forty eight (48) C57B6 mice (with body weight 16-18 g), half male and half female, were used in the study. Animals were divided into four groups with 12 animals per group. All the animals (except for those in control group) were injected with 5 mg/kg Bleomycin in the volume of 50 ul by intratracheal instillation on day 1 of the study. Animals in control group were injected by PBS instead. […] Pathology examination was performed at day 28.
Series [4] relates to Cyclosporine A-induced nephrotoxicity. Kind of series: Cyclosporine A-induced nephrotoxicity in rats (mean arterial pressure, kidney fibrosis score). Format: in vivo, Wistar rats. The settings on record: CsA 15 mg/kg subcutaneous + F351 100 mg/Kg/day, once a day for 28 days, low salt diet. As to the method: 24 male Wistar rats (with body weight 180-220 g) were given low salt diet for 7 days before the study and randomly divided into three groups with 8 rats per group. The groups were named as control group, cyclosporine A (CsA)-treated group, and CsA+[…]-treated group. [table] The animals were treated once a day for 28 days as indicated in the above table. Once every 7 days, the animals were weighed and the dose of CsA and […] were adjusted in terms of body weight. Low salt diet was given to the animals during the whole study period. Mean arterial pressure was determined in alert state of the animals at the end of the study. Renal tissues were also collected for pathology examination.

In series [5] the test system is radiation-induced lung injuries. Kind of series: Radiation-induced lung injuries in mice (bronchial alveolar lavage cell count, whole-lung hydroxyproline). Format: in vivo, BALB/C mice. Also noted: unit not given here. The settings on record: 1200 cGy chest. The source says: Irradiation source: Varian 600C linear accelerator, 6MV X ray
Irradiation method: The mice, six per row, were each detained in an organic-glass cage. The cage was lid with a 1.5 cm thick organic glass plate to compensate the buildup effect. The source-to-skin distance was 100 cm, the irradiation field was 2.5×18 cm. The animal's head and abdomen were sheltered by the lead baffle of the collimator, and thus only the chest was exposed to the irradiation. The single dose of irradiation is 1200 cGy. A sealed transfer box equipped with an air filtering device should be used to transfer the animals from or back to the animal house.
Animals: 10-week old BALB/C mice
Control Model group (60 mice): The mice were irradiated but not treated with the compound.
Prophylaxis group (60 mice): The medication at a predetermined dose was started 2 days before the irradiation. The irradiation method and the dosage were the same as in the control group. Pirfenidone was administered by gauvage (200 mg/kg, dissolved in 0.5% CMC-Na and administrated at the volume of 0.1 ml/10 g) once a day for 3 months.
Treatment group (60 mice): The medication was started at day 0 of the irradiation. The irradiation method and dosage were the same as in the control group. Pirfenidone was administered by gauvage (200 mg/kg, dissolved in 0.5% CMC-Na and administrated at the volume of 0.1 ml/10 g) once a day for 3 months.
Blank control group (60 mice): The mice were not irradiated, and were only administered by gauvage with 0.5% CMC-Na once a day for 3 months.
The mice of each group were observed once a day after irradiation to examine the mortality. The cytometry and cell sorting of the lavage, collagen content measurement (hydroxyproline), pathomorphological observation were conducted periodically after medicament treatment.
Cytometry of the bronchial alveolar lavage liquid: the right lung was perfused with normal saline. 1.5-2.0 ml lavage liquid was collected into an Ependoff tube by gentle suction. The content of the inflammatory cells was counted manually by use of a haemocytometer immediately after collection of the bronchial alveolar lavage liquid.
Measurement of the hydroxyproline content: The measurement was performed with isolated lung tissue by following the instruction in the hydroxyproline kit.
Histopathologic examination: The isolated lung tissue was fixed in formaldehyde solution, pafarrin-imbeded after dehydration, and then subjected to HE staining and Masson trichrome staining. Evaluation criteria: Radiation-induced lung injuries was evaluated according to the standard semi-quantitative scoring of the Ashcroft interstitial pulmonary fibrosis.

For series [6] the test system is unchanged. Kind of series: Tolerance to the therapeutic irradiation dosage, prophylactic Pirfenidone in irradiated mice. Format: in vivo. The settings on record: Prophylactic administration, 200 mg/kg gavage once a day started 2 days before irradiation. As to the method:
(a) Method: the Same as Described in Example 1. Prophylaxis group (60 mice): The medication was started 2 days before the irradiation. The mice were divided into two groups. The animals were administered by gauvage with Pirfenidone (200 mg/kg, dissolved in 0.5% CMC-Na and administrated at the volume of 0.1 ml/10 g) once a day for 3 months. Each group consisted of 60 mice. The mice of each group were observed once a day after irradiation to examine the dyspnea and mortality. The lung weighing, cytometry and cell sorting of the bronchial alveolar lavage liquid, collagen content measurement (hydroxyproline), measurement of cytokines (ACE, TGF-β, TGF-α etc) in the plasma, and pathomorphological observation were conducted periodically after the medicament treatment.

Series [7] can be described thus: Blood level of Pirfenidone capsule in healthy subjects on repeated dosing. Format: in vivo, human. The settings on record: Twelve healthy subjects, capsule 400 mg once a day or three times a day for 5 days. The method, then:
Twelve healthy subjects were administered with Pirfenidone capsule at the dose of 400 mg, once a day or three times a day. The medication continued for 5 days. The blood level of the medicine was measured every day.

The subject of series [8] is radiation-induced lung fibrosis. Kind of series: Prevention and/or treatment of radiation-induced lung fibrosis in mice (macrophages, fibrosis evaluation, hydroproline). The settings on record: for Cytometry of macrophages / Evaluation on lung fibrosis / Hydroproline level: P + R group: 200 mg/kg/day from two days before 1200 cGy chest radiation for 12 weeks. Format: in vivo, BalB/C male mice. The method, then:
BalB/C male mice were randomly divided into three groups, namely, Control group (C group), Radiation group (R group), and Pirfenidone+Radiation (P+R group). All the animals were given single dose radiation on chest at 1200 cGy. Drugs were administrated two days before radiation for 12 weeks at 200 mg/kg/day. Examination includes cytometry of macrophages (performed 4 weeks and 8 weeks after drug administration), determination of hydroproline level (performed 16 weeks and 24 weeks after drug administration), and pathology examination of lung tissues by HE staining and Masson staining and evaluation of lung fibrosis by Ashcroft semi-quantitative evaluation standard under a microscope (performed 16 weeks and 24 weeks after drug administration).

For series [9], the system named is bleomycin-induced lung fibrosis. Kind of series: Bleomycin-induced lung fibrosis in rat: side effects of dexamethasone compared with pirfenidone. The source says:
Dexamethasone treatment was used as positive control in one study was designed to investigate the effects of pirfenidone on bleomycin-induced lung fibrosis in rat.

Where [10] appears, read: Prophylaxis group: 200 mg/kg gavage once a day started 2 days before irradiation, Month 2.
Where [11] appears, read: Prophylaxis group: 200 mg/kg gavage once a day started 2 days before irradiation, Month 3.
[12] abbreviates: Prophylaxis group: 200 mg/kg gavage once a day started 2 days before irradiation, Month 4.
[13] abbreviates: Prophylaxis group: 200 mg/kg gavage once a day started 2 days before irradiation, Month 5.
The mark [14] stands for this setting: Prophylaxis group: 200 mg/kg gavage once a day started 2 days before irradiation, Month 6.
The mark [15] stands for this setting: Treatment group: 200 mg/kg gavage once a day from day 0 of irradiation, Month 2.
Where [16] appears, read: Treatment group: 200 mg/kg gavage once a day from day 0 of irradiation, Month 3.
Where [17] appears, read: Treatment group: 200 mg/kg gavage once a day from day 0 of irradiation, Month 4.
[18] abbreviates: Treatment group: 200 mg/kg gavage once a day from day 0 of irradiation, Month 5.
[19] abbreviates: Treatment group: 200 mg/kg gavage once a day from day 0 of irradiation, Month 6.
Where [20] appears, read: Bleomycin-treated rats plus test drug.

Consider `Cc1ccc(=O)n(-c2ccc(O)cc2)c1` [F351, 5-methyl-1-(4-hydroxylphenyl)-2-(1H)-pyridone], for which the “Amount of inflammatory cells in the bronchial alveolar lavage liquid” value in series [1] is given as “reduce the amount of inflammatory cells”. In addition, the “Degree of kidney fibrosis by pathology examination” value in series [2] is “reduced the degree of kidney fibrosis”. Besides, the “Amount of Urine Proteins” value in series [2] (x ± s) is 54.32 ± 10.88 mg/24 hrs. Also, the “Lung Index (±S)” value in [3] was found to be 1511.71 ± 945.55. In addition, in series [3] (day 28), the “Pathological changes of the lung (pathology examination, HE and Masson staining)” value is reported as “significant improvement”. In series [4], the “Score on Kidney Fibrosis” value turned out to be 0.62 ± 0.15. The “Mean Arterial Pressure” value in [4] (x ± s) is reported as 16.02 ± 0.27 kPa.
As to `Cc1ccc(=O)n(-c2ccccc2)c1` [Pirfenidone], the “Measurement of hydroxyproline in the whole lung” value in series [5] (Prophylaxis group: 200 mg/kg gavage once a day started 2 days before irradiation, Month 1) is recorded as 43.85; in series [5] (setting [10]) it was 43.81; in [5] (setting [11]), 50.46; in [5] (setting [12]) it was 56.98; in [5] (setting [13]), 58.1; in series [5] (setting [14]), 58.15. Moreover, the “Measurement of hydroxyproline in the whole lung” value in [5] (Treatment group: 200 mg/kg gavage once a day from day 0 of irradiation, Month 1) is on record as 36.11; in series [5] (setting [15]), 46.36; in [5] (setting [16]), 52.13; in series [5] (setting [17]), 60.38; in series [5] (setting [18]) it was 67.92; in [5] (setting [19]) it was 68.24. The “Cell count of bronchial alveolar lavage liquid” value was found to be 2.27 in [5] (setting [10]); 2.03 in series [5] (setting [11]); 4.5 in series [5] (setting [12]); 27.7 in series [5] (setting [13]); 15 in [5] (setting [14]); 5.78 in [5] (setting [15]). Also, the “Cell count of bronchial alveolar lavage liquid” value is recorded as 1.04 in [5] (setting [16]), 8.04 in [5] (setting [17]), 45.55 in series [5] (setting [18]) and 39.29 in series [5] (setting [19]). Also, in series [6], the “Cell count in the bronchial alveolar lavage liquid versus control group” value was “lower than that of the control group”. Also, the “Day on which blood stasis was achieved (blood level of the medicine)” value in series [7] worked out at 3 days. In addition, the “Toxic effect on BalB/C mice” value in series [8] (200 mg/kg/day for 12 weeks) is reported as “little toxic effect”. The Cytometry of macrophages is reported as 6.67 ± 2.04 1 × 10^4/ml in [8] (4 weeks) and 2.27 ± 1.41 1 × 10^4/ml in [8] (8 weeks). Further, the “Evaluation on lung fibrosis” value in series [8] (16 weeks) was determined as 29.15 ± 18.74; in series [8] (24 weeks) it was 19.46 ± 6.67. The Hydroproline level in series [8] (16 weeks) is 67.65 ± 11.99 µg/mg; in series [8] (24 weeks), 79.15 ± 10.90 µg/mg.
Turning to `C[C@@H]1C[C@H]2[C@@H]3CCC4=CC(=O)C=C[C@]4(C)[C@@]3(F)[C@@H](O)C[C@]2(C)[C@@]1(O)C(=O)CO` [dexamethasone], the “Lung Index (±S)” value in [3] amounted to 1083.90 ± 289.66. Besides, in [9] (setting [20]), the Mortality rate is 64.3% and the “Number of dead animal” value is 9/14. The Body weight entry in series [9] (rat, in vivo) was “Loss of body weight”.
